# Assay results taken from US10787477B2, “Solid form of 4′-thio-2′-fluoronucleoside phosphamide compound and preparation method therefor and use thereof” (SICHUAN KELUN-BIOTECH BIOPHARMACEUTICAL CO., LTD., priority 2016, dated 2020).
# What was measured:
# [1] = Equilibrium solubility study in deionized water; format: physicochemical; details: for crystal transformation (XRPD of the solid): dispersed in water for 24 hours
# Experimental: About 2.0 to 5.0 mg of each of crystalline form A, crystalline form B and crystalline form D of the compound of Formula (I) was weighed, added to a 3 ml vial, and added with 1.0 ml of deionized water. The resulting suspension was then placed in a rotary incubator (rotation speed was 25 rpm), and equilibrated in a biochemical incubator at 25° C. for 24 hours before 0.8 ml of the suspension was taken. The suspension was centrifuged (6000 rpm, 15 minutes), the supernatant was detected by HPLC for solubility, and the XRPD pattern of the solid was detected.
# [2] = Drug excretion experiment in mice (radioactivity recovery in urine and feces); format: in vivo, ICR mice
# Experimental: Crystalline form A having a radioisotope ([^14C] crystalline form A) is formulated as a suspension in 0.5% sodium carboxymethylcellulose (CMC-Na), and ICR mice were administered by single gavage at a dose of 117 μCi/4.08 mg/kg [^14C] crystalline form A. The absorption and excretion characteristics of crystalline form A were examined by measuring the radioactivity recovery in urine and feces.
# [3] = Pharmacokinetic experiment in mice; format: in vivo, ICR mice; details: single gavage
# Experimental: Crystalline form A of the compound of Formula (I) was formulated as a suspension in 0.5% sodium carboxymethylcellulose (CMC-Na), and ICR mice were administered by single gavage to investigate the pharmacokinetic characteristics. The single gavage doses were 2 mg/kg, 4 mg/kg and 8 mg/kg, respectively.
# The pharmacokinetic parameters were each calculated according to the concentration-time curve of metabolite I in plasma.
# [4] = Solid state stability at 40° C./75% RH; format: physicochemical; details: open container, 8 days
# Experimental: A suitable amount of crystalline form A of the compound of Formula (I) was weighed as a test sample, and it was left in an open container for 8 days under conditions of 40° C./75% RH (RH means relative humidity). The XRPD pattern of the test sample after the treatment was detected, and the purity was measured by HPLC.
# Light experiment = format: physicochemical; details: light intensity of 4500 1×, 25° C., RH 25%
# Experimental: (§1) Crystalline form A of the compound of Formula (I) was placed under the conditions of a light intensity of 4500 1×, 25° C., and RH 25% for 30 days, and samples were taken on Day 0, 5, 11 and 30, respectively, to observe changes in the properties of the samples. The specific optical rotation was measured with a polarimeter, the loss on drying was measured, and the total impurity content was measured by HPLC.
# [5] = High temperature experiment; format: physicochemical; details: 60° C.
# Experimental: as §1, with “was allowed to stand at a high temperature” for “was placed under the conditions”, “of 60° C.” for “of a light intensity of 4500 1×, 25° C., and RH 25%”, “taken at” for “taken on”, “5, 10,” for “5, 11”
# [6] = Stability relationship (slurry of crystalline forms in water pre-saturated with form A); format: physicochemical; details: slurried in H2O pre-saturated with crystalline form A, room temperature, about 4 days
# Experimental: An equal weight of each of crystalline forms A, B and D (8 mg each) was weighed and respectively added to a H2O solution (0.3 ml) pre-saturated with a sample of crystalline form A at room temperature, and the resulting suspension was slurried at room temperature for about 4 days before isolation of the solid. The wet and dry samples were respectively subjected to XRPD pattern detection.
# [7] = Pharmacokinetic experiment in beagle dogs; format: in vivo; details: single gavage
# Experimental: Crystalline form A of the compound of Formula (I) was formulated as a suspension in 0.5% CMC-Na, and administered by single gavage to beagle dogs. The single gavage doses were 0.1 mg/kg, 0.2 mg/kg and 0.4 mg/kg, respectively.
# High humidity experiment = format: physicochemical; details: 25° C. and RH 75%
# Experimental: as §1, with “under a high humidity condition” for “under the conditions”, “of” for “of a light intensity of 4500 1×,”, “25° C.” for “25° C.,”, “RH 75%” for “RH 25%”, “taken at” for “taken on”, “5, 10,” for “5, 11”
# [8] = inferred from urine radioactivity recovery
structure (smiles),measurement,setting,value
"CC(C)OC(=O)[C@H](C)N[P@](=O)(OC[C@H]1S[C@@H](n2ccc(N)nc2=O)[C@@H](F)[C@@H]1O)Oc1ccccc1 [crystalline form A, (S)-isopropyl 2-(((S)-(((2R,3S,4S,5R)-5-(4-amino-2-oxopyrimidin-1(2H)-yl)-4-fluoro-3-hydroxytetrahydrothiophen-2-yl)methoxy)(phenoxy)phosphoryl)amino)propanoate]",solubility at 24 h,"[1]; deionized water, 25 °C, water, thermodynamic from solid, deionized water, after 24 hours, HPLC",~1000 µg/mL
same,crystal transformation (XRPD of the solid),[1]; 25° C.,did not undergo crystal transformation
same,absolute bioavailability by intragastric administration,[2]; [8],above 78.7%
same,proportion of the drug ingredient absorbed into the blood by oral administration,[2]; [8],at least 78.7%
same,metabolism upon entering the body,[3],rapidly metabolized as pharmacologically active metabolite I
same,crystal transformation (XRPD),[4],did not undergo crystal transformation
same,relative purity of the sample (HPLC),[4],99.9%
same,appearance,Light experiment; 30 days,no change in the appearance
same,variation in the specific optical rotation,Light experiment; Day 0 to Day 30,≤ 3 °
same,loss on drying %,Light experiment; different time points,≤ 1.0%
same,total impurity content detected by HPLC,Light experiment; different time points,remained substantially unchanged
same,appearance,[5]; 30 days,no change in the appearance
same,variation in the specific optical rotation,[5]; Day 0 to Day 30,≤ 2 °
same,loss on drying %,[5]; different time points,≤ 1.07%
same,total impurity content detected by HPLC,[5]; different time points,remained substantially unchanged
same,stability relationship / conversion of crystalline form (XRPD),[6],more stable at room temperature
same,metabolism upon entering the body,[7],rapidly metabolized as pharmacologically active metabolite I
same,appearance,High humidity experiment; 30 days,no change in the appearance
same,variation in the specific optical rotation,High humidity experiment; Day 0 to Day 30,≤ 1 °
same,loss on drying %,High humidity experiment; different time points,≤ 1.0%
same,total impurity content detected by HPLC,High humidity experiment; different time points,remained substantially unchanged
"CC(C)OC(=O)[C@H](C)N[P@](=O)(OC[C@H]1S[C@@H](n2ccc(N)nc2=O)[C@@H](F)[C@@H]1O)Oc1ccccc1 [crystalline form B, (S)-isopropyl 2-(((S)-(((2R,3S,4S,5R)-5-(4-amino-2-oxopyrimidin-1(2H)-yl)-4-fluoro-3-hydroxytetrahydrothiophen-2-yl)methoxy)(phenoxy)phosphoryl)amino)propanoate]",solubility in water,"[1]; deionized water, 25° C., after 24 hours, HPLC",~1800 µg/mL
same,crystal transformation (XRPD of the solid),[1]; 25° C.,did not undergo crystal transformation
same,stability relationship / conversion of crystalline form (XRPD),[6],converted to crystalline form A
CC(C)OC(=O)[C@H](C)N[P@](=O)(OC[C@H]1S[C@@H](n2ccc(N)nc2=O)[C@@H](F)[C@@H]1O)Oc1ccccc1 [[^14C] crystalline form A],radioactivity recovery in urine,"[2]; single gavage 117 μCi/4.08 mg/kg, within 0 to 120 hours",78.7%
same,"radioactive substances excreted in urine and feces, of the administered amount","[2]; single gavage, within 48 hours after administration",84.5%
"CC(C)OC(=O)[C@H](C)N[P@](=O)(OC[C@H]1S[C@@H](n2ccc(N)nc2=O)[C@@H](F)[C@@H]1O)Oc1ccccc1 [crystalline form D, (S)-isopropyl 2-(((S)-(((2R,3S,4S,5R)-5-(4-amino-2-oxopyrimidin-1(2H)-yl)-4-fluoro-3-hydroxytetrahydrothiophen-2-yl)methoxy)(phenoxy)phosphoryl)amino)propanoate]",crystal transformation (XRPD of the solid),[1]; 25° C.,underwent crystal transformation
same,stability relationship / conversion of crystalline form (XRPD),[6],converted to crystalline form A
